Each structure is given as a SMILES string. Counter-ions that a name gives are not always drawn.

One experiment concerns ring stage parasites. The experiment in a line: Parasite growth potency assay, 72 hours, LDH readout. The format is cell-based. The conditions noted are these: 72 h, parasite growth measured by LDH assay after 72 hours at 37° C.; 0.7% rings, 2% haematocrit; read-out: EC50. An outline of the steps:
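Parasite growth was quantified by LDH assay after a −80 °C freeze-thaw. Before that, compound was incubated for 72 h at 37 °C under humidified gas with ring-stage cultures adjusted to 0.7% parasitemia and 2% haematocrit in serum- and albumax-supplemented RPMI-Hepes.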
For the molecule `CCC1(CC)CC(=O)N([C@H](CCOC)c2cccc(C(=O)N[C@@H]3c4ccccc4C4(CC4)[C@H]3O)c2)C(=N)N1` [Example 191A, [4,4-diethyl-1-[(1R)-1-[3-[(2′-hydroxyspiro[cyclopropane-1,3′-indane]-1′-yl)carbamoyl]phenyl]-3-methoxy-propyl]-6-oxo-hexahydropyrimidin-2-ylidene]ammonium; 2,2,2-trifluoroacetate], the EC50 (usually the midpoint of the concentration-response curve) was 0.7 nM. Take `CCC[C@H](c1cncc(C(=O)N[C@H]2CCOc3ccccc32)c1)N1C(=N)NC(CC)(CC)CC1=O` [Example 50, [1-[1-[5-[[(4S)-chroman-4-yl]carbamoyl]pyridin-1-ium-3-yl]butyl]-4,4-diethyl-6-oxo-hexahydropyrimidin-2-ylidene]ammonium; 2,2,2-trifluoroacetate]: the EC50 amounted to 0.4 nM.

As for `CC(C)[C@]1(C)CC(=O)N([C@H](c2cccnc2)c2cccc(C(=O)N[C@H]3CC(C)(C)Oc4ccccc43)c2)C(=N)N1` [Example 101A, [(4S)-1-[[3-[[(4S)-2,2-dimethylchroman-4-yl]carbamoyl]phenyl]-pyridin-1-ium-3-yl-methyl]-4-isopropyl-4-methyl-6-oxo-hexahydropyrimidin-2-ylidene]ammonium; 2,2,2-trifluoroacetate], the EC50 is 0.3 nM.

In the case of `CCC1(CC)CC(=O)N([C@H](C)c2cccc(C(=O)N[C@@H]3c4ccccc4OC(C)(C)[C@@]3(C)O)c2)C(=N)N1` [Example 228, 3-[(1R)-1-(4,4-diethyl-2-imino-6-oxo-hexahydropyrimidin-1-yl)ethyl]-N-[(3S,4R)-3-hydroxy-2,2,3-trimethyl-chroman-4-yl]benzamide], the EC50 came out at 0.34 nM.

With `COCC[C@H](c1cccc(C(=O)NC2c3cc(F)ccc3OC(C)(C)C2(C)O)c1)N1C(=N)NC(C)(C)CC1=O` (stereo partly drawn) [Example 235, N-(6-fluoro-3-hydroxy-2,2,3-trimethyl-chroman-4-yl)-3-[(1R)-1-(2-imino-4,4-dimethyl-6-oxo-hexahydropyrimidin-1-yl)-3-methoxy-propyl]benzamide], the EC50 is 0.32 nM. For `CCC1(CC)CC(=O)N([C@H](CCN2CCOCC2)c2cccc(C(=O)NC3CC(C)(C)Oc4ccc(F)cc43)c2)C(=N)N1` (stereo in doubt) [Example 137, [4,4-diethyl-1-[1-[3-[(6-fluoro-2,2-dimethyl-chroman-4-yl)carbamoyl]phenyl]-3-morpholin-4-ium-4-yl-propyl]-6-oxo-hexahydropyrimidin-2-ylidene]ammonium; 2,2,2-trifluoroacetate], the EC50 was found to be 0.8 nM. For `CCC1(CC)CC(=O)N(Cc2cccc(C(=O)N[C@@H]3c4ccccc4C[C@H]3O)c2)C(=N)N1` [Example 15, [4,4-diethyl-1-[[3-[[(1R,2R)-2-hydroxyindan-1-yl]carbamoyl]phenyl]methyl]-6-oxo-hexahydropyrimidin-2-ylidene]ammonium; 2,2,2-trifluoroacetate], the EC50 stood at 2.6 nM. With `CCC1(CC)CC(=O)N([C@@H](c2cncc(F)c2)c2cccc(C(=O)N[C@H]3CC(C)(C)Oc4ccccc43)c2)C(=N)N1` [Example 99B, [1-[[3-[[(4S)-2,2-dimethylchroman-4-yl]carbamoyl]phenyl]-(5-fluoropyridin-1-ium-3-yl)methyl]-4,4-diethyl-6-oxo-hexahydropyrimidin-2-ylidene]ammonium; 2,2,2-trifluoroacetate], the EC50 worked out at 2 nM. Take `CC(C)[C@]1(C)CC(=O)N(Cc2cc(F)cc(C(=O)N[C@@H]3c4ccccc4C[C@H]3O)c2)C(=N)N1` [Example 30, [(4S)-1-[[3-fluoro-5-[[(1R,2R)-2-hydroxyindan-1-yl]carbamoyl]phenyl]methyl]-4-isopropyl-4-methyl-6-oxo-hexahydropyrimidin-2-ylidene]ammonium; 2,2,2-trifluoroacetate]: the EC50 was determined as 3.1 nM.

Consider `CCC1(CC)CC(=O)N([C@H](CCN2CCCC2)c2cccc(C(=O)N[C@H]3CCOc4ccccc43)c2)C(=N)N1` [Example 58, [1-[1-[3-[[(4S)-chroman-4-yl]carbamoyl]phenyl]-3-pyrrolidin-1-ium-1-yl-propyl]-4,4-diethyl-6-oxo-hexahydropyrimidin-2-ylidene]ammonium; 2,2,2-trifluoroacetate], for which the 50% effective concentration (EC50) worked out at 1.3 nM.

For the molecule `C#CCC[C@H](c1cccc(C(=O)NC2CC3(CCC3)Oc3ccccc32)c1)N1C(=N)NC(CC)(CC)CC1=O` (stereo in doubt) [Example 211A, [4,4-diethyl-6-oxo-1-[(1R)-1-[3-[[(4S)-spiro[chromane-2,1′-cyclobutane]-4-yl]carbamoyl]phenyl]pent-4-ynyl]hexahydropyrimidin-2-ylidene]ammonium; 2,2,2-trifluoroacetate], the half-maximal effective concentration (EC50) was determined as 25 nM. For `CCC1(CC)CC(=O)N([C@H](CC(C)C)c2cccc(C(=O)N[C@H]3CCOc4ccccc43)c2)C(=N)N1` [Example 14A, [1-[1-[3-[[(4S)-chroman-4-yl]carbamoyl]phenyl]-3-methyl-butyl]-4,4-diethyl-6-oxo-hexahydropyrimidin-2-ylidene]ammonium; 2,2,2-trifluoroacetate], the EC50 amounted to 0.2 nM. Consider `CCC1(CC)CC(=O)N(Cc2cccc(C(=O)N[C@H]3CC(C)(C)Oc4cccc(F)c43)c2)C(=N)N1` (stereo in doubt) [Example 94A, [4,4-diethyl-1-[[3-[(5-fluoro-2,2-dimethyl-chroman-4-yl)carbamoyl]phenyl]methyl]-6-oxo-hexahydropyrimidin-2-ylidene]ammonium; 2,2,2-trifluoroacetate], for which the EC50 was 0.4 nM. Consider `COCC[C@H](c1cncc(C(=O)N[C@@H]2c3ccccc3C[C@H]2O)c1)N1C(=N)N[C@](C)(C(C)C)CC1=O` [Example 130, [(4S)-1-[1-[5-[[(1R,2R)-2-hydroxyindan-1-yl]carbamoyl]pyridin-1-ium-3-yl]-3-methoxy-propyl]-4-isopropyl-4-methyl-6-oxo-hexahydropyrimidin-2-ylidene]ammonium; 2,2,2-trifluoroacetate], for which the EC50 was 18.8 nM. `CCC1(CC)CC(=O)N([C@H](c2cncc(F)c2)c2cccc(C(=O)N[C@H]3CC(C)(C)Oc4ccccc43)c2)C(=N)N1` [Example 99A, [1-[[3-[[(4S)-2,2-dimethylchroman-4-yl]carbamoyl]phenyl]-(5-fluoropyridin-1-ium-3-yl)methyl]-4,4-diethyl-6-oxo-hexahydropyrimidin-2-ylidene]ammonium; 2,2,2-trifluoroacetate]: the EC50 turned out to be 0.6 nM. On the same count and under the same terms, for `CCC1(CC)CC(=O)N([C@@H](c2cncc(F)c2)c2cccc(C(=O)N[C@H]3CCOc4ccccc43)c2)C(=N)N1` [Example 106B, [1-[[3-[[(4S)-chroman-4-yl]carbamoyl]phenyl]-(5-fluoropyridin-1-ium-3-yl)methyl]-4,4-diethyl-6-oxo-hexahydropyrimidin-2-ylidene]ammonium; 2,2,2-trifluoroacetate] the value was 3.1 nM; for `CCC1(CC)CC(=O)N([C@H](C)c2cccc(C(=O)N[C@H]3CCOc4ccccc43)c2)C(=N)N1` [Example 31, [1-[1-[3-[[(4S)-chroman-4-yl]carbamoyl]phenyl]ethyl]-4,4-diethyl-6-oxo-hexahydropyrimidin-2-ylidene]ammonium; 2,2,2-trifluoroacetate], 0.8 nM.

In the case of `CCC1(CC)CC(=O)N([C@H](COCCOC)c2cccc(C(=O)N[C@@H]3c4ccccc4OC(C)(C)[C@H]3O)c2)C(=N)N1` [Example 139, [4,4-diethyl-1-[(1S)-1-[3-[[(3S,4R)-3-hydroxy-2,2-dimethyl-chroman-4-yl]carbamoyl]phenyl]-2-(2-methoxyethoxy)ethyl]-6-oxo-hexahydropyrimidin-2-ylidene]ammonium; 2,2,2-trifluoroacetate], the EC50 was 1.5 nM.

`CCC1(CC)CC(=O)N(Cc2cc(C(=O)N[C@H]3CCOc4ccccc43)ccn2)C(=N)N1` [Example 23, [1-[[4-[[(4S)-chroman-4-yl]carbamoyl]-2-pyridyl]methyl]-4,4-diethyl-6-oxo-hexahydropyrimidin-2-ylidene]ammonium; 2,2,2-trifluoroacetate]: the EC50 turned out to be 11.5 nM. With `CCC1(CC)CC(=O)N([C@H](c2ccccc2)c2cccc(C(=O)N[C@@H]3CCOc4ccccc43)c2)C(=N)N1` [Example 4B, [1-[[3-[[(4R)-chroman-4-yl]carbamoyl]phenyl]-phenyl-methyl]-4,4-diethyl-6-oxo-hexahydropyrimidin-2-ylidene]ammonium; 2,2,2-trifluoroacetate], the EC50 was found to be 35.4 nM.

The same experiment, now with this note: parasite growth measured by LDH assay after 72 hours at 37° C.; 0.7% rings, 2% haematocrit; read-out: EC50.
For `CC[C@]1(C)CC(=O)N([C@H](CCOC)c2cccc(C(=O)NC3c4cc(F)ccc4OC(C)(C)C3(C)O)c2)C(=N)N1` (single isomer, unassigned) [Example 237B], the EC50 is 0.19 nM. On to `COCC[C@H](c1cc(F)cc(C(=O)N[C@@H]2c3ccccc3C[C@]2(C)O)c1)N1C(=N)NC(C)(C)CC1=O` [Example 175B, 3-fluoro-N-[(1R,2S)-2-hydroxy-2-methyl-indan-1-yl]-5-[1-(2-imino-4,4-dimethyl-6-oxo-hexahydropyrimidin-1-yl)-3-methoxy-propyl]benzamide], for which the EC50 stood at 9.2 nM.

The experiment is the same for the next values; noted with them: parasite growth measured by LDH assay after 72 hours at 37° C.; 0.7% rings, 2% haematocrit; trifluoroacetate; read-out: EC50.
As for `CCC1(C)CC(=O)N([C@H](CCOC)c2cccc(C(=O)N[C@@H]3c4ccccc4C[C@H]3O)c2)C(=N)N1` (stereo partly drawn) [Example 195B, [4-ethyl-1-[(1R)-1-[3-[[(1R,2R)-2-hydroxyindan-1-yl]carbamoyl]phenyl]-3-methoxy-propyl]-4-methyl-6-oxo-hexahydropyrimidin-2-ylidene]ammonium; 2,2,2-trifluoroacetate], the EC50 amounted to 2.7 nM. For the molecule `CC#CCCC(c1cccc(C(=O)NC2CC(C)(C)Oc3ccccc32)c1)N1C(=N)NC(CC)(CC)CC1=O` (stereo not shown) [Example 83C, [1-[1-[3-[(2,2-dimethylchroman-4-yl)carbamoyl]phenyl]hex-4-ynyl]-4,4-diethyl-6-oxo-hexahydropyrimidin-2-ylidene]ammonium; 2,2,2-trifluoroacetate], the EC50 came to 50.2 nM. For the molecule `CCC1(CC)CC(=O)N([C@H](CCOC)c2cc(F)cc(C(=O)NC3c4ccccc4OC3(C)COC)c2)C(=N)N1` (single isomer, unassigned) [Example 176A, trifluoroacetate], the EC50 was found to be 21.8 nM.

The values are drawn from US12629374B2, “Antimalarial agents” (Merck Sharp & Dohme LLC, priority 2020, dated 2026).
